Two molecules from patent US5344927A, “Tetrahydrobenzimidazole derivatives and pharmaceutical compositions containing same” (Yamanouchi Pharmaceutical Co., Ltd., priority 1989, dated 1994) can be followed below.

The assay deals with T1, 5-HT3 -receptor (Rattus norvegicus, UniProt P35563).
T1 construct: Transient reduction in heart rate and blood pressure induced by intravenous administration of serotonin; from tissue
T1 sequence (P35563 24-483): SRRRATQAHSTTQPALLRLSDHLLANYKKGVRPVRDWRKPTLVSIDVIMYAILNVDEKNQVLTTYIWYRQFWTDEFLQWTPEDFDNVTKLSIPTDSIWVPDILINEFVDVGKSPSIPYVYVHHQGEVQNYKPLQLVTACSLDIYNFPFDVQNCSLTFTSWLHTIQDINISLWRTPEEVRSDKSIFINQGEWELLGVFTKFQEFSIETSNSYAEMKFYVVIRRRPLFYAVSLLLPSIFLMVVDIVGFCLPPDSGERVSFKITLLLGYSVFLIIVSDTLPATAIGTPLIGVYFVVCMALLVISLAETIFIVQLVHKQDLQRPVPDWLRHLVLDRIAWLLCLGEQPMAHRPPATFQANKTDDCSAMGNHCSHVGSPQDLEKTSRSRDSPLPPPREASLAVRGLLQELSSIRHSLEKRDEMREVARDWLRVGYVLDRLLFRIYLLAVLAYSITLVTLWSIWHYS
The assay can be described thus: Antagonism against 5-HT3-receptor: serotonin-induced Bezold-Jarish (BJ) reflex in anesthetized rats. The class given is in vivo. Conditions: iv, 10 min, i.v., urethane-anesthetized Wistar male rats, given 10 minutes before serotonin, read-out: BJ Reflex Inhibitory Activity ED50. As for the experimental part: Nine-week-old Wistar male rats were anesthetized by intraperitoneal administration of 1 g/kg of urethane, and blood pressure and heart rate were measured under artificial respiration. Transient reduction in heart rate and blood pressure induced by intravenous administration of serotonin or 2-methylserotonin which is a selective agonist of 5-HT3 was taken as an index of the reaction via 5-HT3 receptor [Bezold-Jarish reflex; Paintal, A. S., Pysiolo. Rev., Vol. 53, p. 159 (1973)].
Inhibitory activity of the compound of the present invention on serotonin-induced Bezold-Jarish (BJ) reflex in rats is shown in Table 1 below.

On to `O=C(C1CCc2nc[nH]c2C1)n1c(=O)[nH]c2ccccc21` (centres unmarked) [Example 9, 1-[(4,5,6,7-tetrahydrobenzimidazol-5-yl)carbonyl]-2,3-dihydrobenzimidazol-2-one], for which the ED50 stood at 0.8 µg/kg.

With `O=C(C1CCc2nc[nH]c2C1)N1CCc2ccccc21.O=C(O)/C=C/C(=O)O` (centres unmarked) [Example 2, 5-[(2,3-Dihydroindol-1-yl)carbonyl]-4,5,6,7-tetrahydrobenzimidazole fumarate], the 50% effective dose (ED50) was determined as 0.29 µg/kg.

The term ED50 denotes the dose at which the effect has come halfway, by size or by number of responders.
